Experimental data from patent US9738655B2, “Tetrahydroisoquinolines containing substituted azoles as factor XIa inhibitors” (BRISTOL-MYERS SQUIBB COMPANY, priority 2013, dated 2017).
Where a name gives a salt, the structure may show the parent alone.

Target: purified human Factor XIa (Homo sapiens (Human), UniProt P03951)
Assay: Factor XIa enzyme inhibition assay (chromogenic substrate S-2366)
Conditions: read-out: Factor XIa Ki; measured at 25° C.

purified human Factor XIa, sequence (P03951 388-625): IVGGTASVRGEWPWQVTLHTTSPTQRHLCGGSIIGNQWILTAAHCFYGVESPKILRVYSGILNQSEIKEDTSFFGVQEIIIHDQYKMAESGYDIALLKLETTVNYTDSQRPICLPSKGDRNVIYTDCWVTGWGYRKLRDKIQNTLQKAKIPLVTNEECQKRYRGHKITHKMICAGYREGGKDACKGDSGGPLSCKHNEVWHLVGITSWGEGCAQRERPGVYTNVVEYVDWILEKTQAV
purified human Factor XIa, sequence (P03951 19-387 partner): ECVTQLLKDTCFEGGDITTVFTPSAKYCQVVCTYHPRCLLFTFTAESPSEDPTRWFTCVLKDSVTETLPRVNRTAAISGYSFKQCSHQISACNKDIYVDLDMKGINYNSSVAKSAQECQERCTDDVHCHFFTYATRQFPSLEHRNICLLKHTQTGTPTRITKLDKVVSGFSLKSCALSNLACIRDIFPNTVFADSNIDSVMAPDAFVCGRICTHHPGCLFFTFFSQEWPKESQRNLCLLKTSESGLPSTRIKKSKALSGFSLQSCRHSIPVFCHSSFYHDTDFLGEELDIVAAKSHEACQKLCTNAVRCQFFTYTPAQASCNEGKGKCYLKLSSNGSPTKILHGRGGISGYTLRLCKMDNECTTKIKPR

Row | Compound | Ki [nM]
1 | 4-(2-(1-(3-chloro-2- fluorophenyl)-5-hydroxy- 1H-pyrazole-4-carbonyl)-5- (4-methylpiperazin-1-yl)- 1,2,3,4- tetrahydroisoquinoline-1- carboxamido)benzoic acid, 2 TFA salt. [Example 214] | 713
2 | O=C(O)c1ccc(NC(=O)C2c3cccc(N4CCOCC4=O)c3CCN2C(=O)[C@H]2CC(c3cccc(Cl)c3F)=NO2)cc1 (stereo in doubt) [Example 290, 4-((S)-2-((R)-3-(3-chloro-2-fluorophenyl)-4,5-dihydroisoxazole-5-carbonyl)-5-(3-oxomorpholino)-1,2,3,4-tetrahydroisoquinoline-1-carboxamido)benzoic acid] | 13.4
3 | O=C(O)c1ccc(NC(=O)[C@H]2c3ccccc3CCN2C(=O)c2cn(-c3cccc(Cl)c3F)nn2)cc1 [Example 2, (R)-4-(2-(1-(3-Chloro-2-fluorophenyl)-1H-1,2,3-triazole-4-carbonyl)-1,2,3,4-tetrahydroisoquinoline-1-carboxamido)benzoic acid] | 5580
4 | Nc1cc(-c2cccc3c2CCN(C(=O)c2cn(-c4cccc(Cl)c4F)nn2)C3C(=O)Nc2ccc(C(=O)O)cc2)ccn1 (stereo not drawn) [Example 38, 4-(5-(2-aminopyridin-4-yl)-2-(1-(3-chloro-2-fluorophenyl)-1H-1,2,3-triazole-4-carbonyl)-1,2,3,4-tetrahydroisoquinoline-1-carboxamido)benzoic acid, bis-TFA salt] | < 5
5 | O=C(O)c1ccc(NC(=O)C2c3cccc(-c4ccc5c(c4)CCNC5)c3CCN2C(=O)c2cn(-c3cccc(Cl)c3F)nn2)cc1 (stereo not drawn) [Example 40, 4-(2-(1-(3-chloro-2-fluorophenyl)-1H-1,2,3-triazole-4-carbonyl)-1,1′,2,2′,3,3′,4,4′-octahydro-[5,6′-biisoquinoline]-1-carboxamido)benzoic acid, TFA salt] | < 5
6 | Nc1c(C(=O)N2CCc3c(-c4cncnc4)cccc3C2C(=O)Nc2ccc(C(=O)O)cc2)cnn1-c1cccc(Cl)c1F (stereo not drawn) [Example 46, 4-(2-(5-Amino-1-(3-chloro-2-fluorophenyl)-1H-pyrazole-4-carbonyl)-5-(pyrimidin-5-yl)-1,2,3,4-tetrahydroisoquinoline-1-carboxamido)benzoic acid, TFA salt] | < 5
7 | CNC(=O)c1ccc(-c2cccc3c2CCN(C(=O)c2cnn(-c4cccc(Cl)c4F)c2N)C3C(=O)Nc2ccc(C(=O)O)cc2)cn1 (stereo not drawn) [Example 47, 4-(2-(5-Amino-1-(3-chloro-2-fluorophenyl)-1H-pyrazole-4-carbonyl)-5-(6-(methylcarbamoyl)pyridin-3-yl)-1,2,3,4-tetrahydroisoquinoline-1-carboxamido)benzoic acid, TFA salt] | < 5
8 | CC1(O)CCN(c2cccc3c2CCN(C(=O)c2cnn(-c4cccc(Cl)c4F)c2)C3C(=O)Nc2ccc(C(=O)O)cc2)CC1 (stereo not drawn) [Example 68, 4-(2-(1-(3-chloro-2-fluorophenyl)-1H-pyrazole-4-carbonyl)-5-(4-hydroxy-4-methylpiperidin-1-yl)-1,2,3,4-tetrahydroisoquinoline-1-carboxamido)benzoic acid, TFA salt] | < 5
9 | CN1CCC(=O)N(c2cccc3c2CCN(C(=O)c2cnn(-c4cccc(Cl)c4F)c2)C3C(=O)Nc2ccc(C(=O)O)cc2)CC1 (stereo not drawn) [Example 70, 4-(2-(1-(3-chloro-2-fluorophenyl)-1H-pyrazole-4-carbonyl)-5-(4-methyl-7-oxo-1,4-diazepan-1-yl)-1,2,3,4-tetrahydroisoquinoline-1-carboxamido)benzoic acid, TFA salt] | 29.3
10 | O=C(O)c1ccc(NC(=O)C2c3cccc(N4CCC(O)CC4)c3CCN2C(=O)c2cn(-c3cccc(Cl)c3F)nn2)cc1 (stereo not drawn) [Example 85, 4-(2-(1-(3-chloro-2-fluorophenyl)-1H-1,2,3-triazole-4-carbonyl)-5-(4-hydroxypiperidin-1-yl)-1,2,3,4-tetrahydroisoquinoline-1-carboxamido)benzoic acid, TFA salt] | < 5
11 | O=C(O)c1ccc(NC(=O)[C@@H]2c3cccc(N4CCC(O)CC4)c3CCN2C(=O)c2cn(-c3cccc(Cl)c3F)nn2)cc1 [Example 86, (S)-4-(2-(1-(3-chloro-2-fluorophenyl)-1H-1,2,3-triazole-4-carbonyl)-5-(4-hydroxypiperidin-1-yl)-1,2,3,4-tetrahydroisoquinoline-1-carboxamido)benzoic acid, TFA salt] | < 5
12 | O=C(O)c1ccc(NC(=O)[C@H]2c3cccc(N4CCC(O)CC4)c3CCN2C(=O)c2cn(-c3cccc(Cl)c3F)nn2)cc1 [Example 87, (R)-4-(2-(1-(3-chloro-2-fluorophenyl)-1H-1,2,3-triazole-4-carbonyl)-5-(4-hydroxypiperidin-1-yl)-1,2,3,4-tetrahydroisoquinoline-1-carboxamido)benzoic acid, TFA salt] | 43
13 | O=C(O)c1ccc(NC(=O)C2c3cccc(NCCO)c3CCN2C(=O)c2cn(-c3cccc(Cl)c3F)nn2)cc1 (stereo not drawn) [Example 111, 4-(2-(1-(3-Chloro-2-fluorophenyl)-1H-1,2,3-triazole-4-carbonyl)-5-((2-hydroxyethyl)amino)-1,2,3,4-tetrahydroisoquinoline-1-carboxamido)benzoic acid, TFA salt] | 6.04
14 | O=C(N[C@H]1CC[C@@H](C(=O)O)CC1)C1c2cccc(-c3cncnc3)c2CCN1C(=O)c1cn(-c2cccc(Cl)c2F)nn1 (stereo partly drawn) [Example 133, (1R,4R)-4-(2-(1-(3-chloro-2-fluorophenyl)-1H-1,2,3-triazole-4-carbonyl)-5-(pyrimidin-5-yl)-1,2,3,4-tetrahydroisoquinoline-1-carboxamido) cyclohexanecarboxylic acid] | 12.6
15 | COC(=O)C12CCC(NC(=O)C3c4cccc(-c5cncnc5)c4CCN3C(=O)c3cn(-c4cccc(Cl)c4F)nn3)(CC1)CC2 (stereo not drawn) [Example 142, Methyl 4-(2-{[1-(3-chloro-2-fluorophenyl)-1H-1,2,3-triazol-4-yl]carbonyl}-5-(pyrimidin-5-yl)-1,2,3,4-tetrahydroisoquinoline-1-amido)bicyclo[2.2.2]octane-1-carboxylate, TFA salt] | 56.2
16 | COC1CCN(c2cccc3c2CCN(C(=O)c2sc(-c4cccnc4)nc2C)C3C(=O)Nc2ccc(C(=O)O)cc2)CC1 (stereo not drawn) [Example 146, 4-(5-(4-methoxypiperidin-1-yl)-2-(4-methyl-2-(pyridin-3-yl)thiazole-5-carbonyl)-1,2,3,4-tetrahydroisoquinoline-1-carboxamido)benzoic acid, 2 TFA salt] | 1200
17 | COC1CCN(c2cccc3c2CCN(C(=O)c2cc(-c4ccccc4Cl)no2)C3C(=O)Nc2ccc(C(=O)O)cc2)CC1 (stereo not drawn) [Example 148, 4-(2-(3-(2-chlorophenyl)isoxazole-5-carbonyl)-5-(4-methoxypiperidin-1-yl)-1,2,3,4-tetrahydroisoquinoline-1-carboxamido)benzoic acid, TFA salt] | 69.5
18 | COC1CCN(c2cccc3c2CCN(C(=O)C2CCN(c4ccc(OC(C)C)cc4)C2=O)C3C(=O)Nc2ccc(C(=O)O)cc2)CC1 (stereo not drawn) [Example 149, 4-(2-(1-(4-isopropoxyphenyl)-2-oxopyrrolidine-3-carbonyl)-5-(4-methoxypiperidin-1-yl)-1,2,3,4-tetrahydroisoquinoline-1-carboxamido)benzoic acid, TFA salt] | 7160
